Test results: US20260256747A1, “ARYL-TRIAZOLYL AND RELATED GPR84 ANTAGONISTS AND USES THEREOF” (Liminal BioSciences Limited, priority 2022, published 2026)

Biological target: T1, human GPR84 receptor (Homo sapiens, UniProt Q9NQS5)
T1 construct: host or cells: HEK293 cells, transient transfection
Experiment: Gαi biosensor BRET assay in HEK293 cells transfected with GPR84, stimulated with the GPR84 agonist ZQ-16
Assay type: cell-based
Settings: 200 nmol/L ZQ-16; for inhibition at 10 µM / inhibition at 2 µM: HEK293, single concentration; for inhibition at 10 µM: concentration class F = 10 μM; for inhibition at 2 µM: concentration class A = 2 μM
Source text: Background—The following assays can be used for determination of GPR84 activation in living HEK293 cells. The Gαi BRET biosensor (Gagnon et al., 2018; Gales et al., 2006. Nat Struct Mol Biol. 13, 778-86; Saulieres et al., 2012. Nat Chem Biol. 8, 622-30) allows to directly monitor GPR84-mediated activation of Gαi. The Gαi biosensor consists of a Rluc8-tagged Gαi2 subunit, a GFP10-tagged Gγ2 subunit, and an untagged GB1. Agonist stimulation and GPR84 activation triggers a physical separation between the RLuc8-Gαi donor and the GFP10-Gγ2 acceptor, resulting in a decrease in BRET signal whose amplitude is correlated to ligand efficacy (Gales et al., 2006). Moreover, signaling functions of GPCRs are tightly regulated by endocytosis, the targeting of receptors to endosomes and their sorting to lysosomes or recycling to the plasma membrane. The early endosomes (EEs) trafficking assay (Namkung et al., 2016. Nat Commun. 7, 12178) uses Rluc8-tagged GPR84 and Renilla GFP (rGFP) attached to the FYVE domain from human endofin/zinc finger FYVE domain-containing protein 16, which binds phosphatidylinositol 3-phosphate in EEs. Agonist stimulation of GPR84-Rluc8 leads to trafficking of the receptor to EEs, and ensuing increase of the donor concentration relative to the rGFP-FYVE acceptor anchored in the same cellular compartment, and thus results in an increase in BRET signal.
Plasmids—The cDNA clones for human GPR84 receptor, human Gαi2, Gβ1, and Gγ2 were obtained from the cDNA Resource Center (www.cdna.org). GFP10 (F64L, S147P, S202F and H231L variant of Aequorea victoria Green Fluorescent Protein) gBlocks gene fragments (Integrated DNA Technologies, IA) and linker were inserted in frame at the N-terminus of human Gγ2. Rluc8 (A^55T, Cl24A, S130A, K136R, A^143M, M185V, M253L, and S287L variant of the Renilla reniformis luciferase) gBlocks gene fragment was inserted with linkers in frame in between residues 91 and 92 of Gαi2 or at the C-terminus of GPR84. The FYVE domain from human endofin (residues Q739 to K806) attached in frame at the C terminus of a humanized Renilla GFP (rGFP), were synthesized as gBlocks gene fragments.
Bioluminescence Resonance Energy Transfer (BRET) Measurement-HEK293 cells were transfected with GPR84-Rluc8 and rGFP-FYVE for the EEs trafficking biosensor or with GPR84, Gαi2-Rluc8, GFP10-Gγ2, and Gβ1 for the Gαi biosensor. The following day, transiently transfected cells were seeded in 96-well white clear bottom microplates coated with poly-D-lysine and left in culture for 24 hours. Cells were washed once with Tyrode's buffer (140 mmol/L NaCl, 1 mmol/L CaCl2, 2.7 mmol/L KCl, 0.49 mmol/L MgCl2, 0.37 mmol/L NaH2PO4, 5.6 mmol/L glucose, 12 mmol/L NaHCO3, and 25 mmol/L HEPES, pH 7.5) before performing assays in Tyrode's buffer. Test compounds were incubated with cells for 5 (Gai) or 15 (EEs) minutes at 37° C. before addition of 200 nmol/L of the GPR84 agonist ZQ-16 (2-(Hexylthio)-6-hydroxy-4 (3H)-pyrimidinone) for 5 minutes at room temperature (Gai) or 30 minutes at 37° C. (EEs). The Rluc8 substrate coelenterazine 400A (Prolume, Lakeside, AZ) was added at a final concentration of 5 μmol/L and BRET readings were collected using an Infinite M1000 microplate reader (Tecan, Morrisville, NC). BRET2 readings between Rluc8 and GFP10 or rGFP were collected by sequential integration of the signals detected in the 370 to 450 nm (Rluc8) and 510 to 540 nm (GFP10, rGFP) windows. The BRET signal was calculated as the ratio of light emitted by acceptor (GFP10, rGFP) over the light emitted by donor (Rluc8). The values were corrected to net BRET by subtracting the background BRET signal obtained in cells transfected with Rluc8 constructs alone. Ligand-promoted net BRET values were calculated by subtracting vehicle-induced net BRET from ligand-induced net BRET.

T1 sequence (Q9NQS5 whole entry): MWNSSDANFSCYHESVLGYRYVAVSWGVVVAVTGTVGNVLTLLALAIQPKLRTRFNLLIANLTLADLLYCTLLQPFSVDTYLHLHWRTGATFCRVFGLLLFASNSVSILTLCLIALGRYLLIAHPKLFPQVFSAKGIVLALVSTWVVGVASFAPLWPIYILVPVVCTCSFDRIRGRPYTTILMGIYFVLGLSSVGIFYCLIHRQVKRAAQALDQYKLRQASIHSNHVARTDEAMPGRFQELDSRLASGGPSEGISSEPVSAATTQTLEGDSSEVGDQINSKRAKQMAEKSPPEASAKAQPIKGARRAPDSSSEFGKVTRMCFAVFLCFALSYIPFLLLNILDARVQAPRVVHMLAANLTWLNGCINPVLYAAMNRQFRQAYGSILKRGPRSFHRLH

Structure (SMILES)	IC50	inhibition at 10 µM	inhibition at 2 µM
CCc1cc(C#CCNS(C)(=O)=O)ccc1-c1cn(CC2OCC(C)(C)CO2)nn1 [Compound I-1, N-(3-(4-(1-((5,5-dimethyl-1,3-dioxan-2-yl)methyl)-1H-1,2,3-triazol-4-yl)-3-ethylphenyl)prop-2-ynyl)methanesulfonamide]	300 to 1000 nM	> 75%	–
CCc1cc(C#CCN)ccc1-c1cn(CC2OCC(C)(C)CO2)nn1 [Compound I-2]	300 to 1000 nM	> 75%	–
CC1(C)COC(Cn2cc(-c3ccc(C#CCOC4CC4)cc3C3CC3)nn2)OC1 [Compound I-3]	300 to 1000 nM	> 75%	–
C(#Cc1ccc(-c2cn(CC3OCC4(CC4)CO3)nn2)c(C2CC2)c1)COC1CC1 [Compound I-4]	300 to 1000 nM	–	> 75%
CC(O)C1CN(c2ccc(-c3cn(CC4OCC5(CC5)CO4)nn3)c(N(C)C)c2)C1 (centres unmarked) [Compound I-5, 1-(1-(4-(1-(5,7-dioxaspiro[2.5]octan-6-ylmethyl)-1H-1,2,3-triazol-4-yl)-3-(dimethylamino)phenyl)azetidin-3-yl)ethanol]	–	> 75%	–
C(#CC1CCC1)c1cnc(-c2cn(CC3OCC4(CC4)CO3)nn2)c(OC2CC2)c1 [Compound I-6]	–	–	> 75%
CN(C)c1cc(N2CC3(CC(O)C3)C2)ccc1-c1cn(CC2OCC3(CC3)CO2)nn1 (centres unmarked) [Compound I-7, 2-(4-(1-(5,7-dioxaspiro[2.5]octan-6-ylmethyl)-1H-1,2,3-triazol-4-yl)-3-(dimethylamino)phenyl)-2-azaspir[3.3]heptan-6-ol]	–	> 75%	–
CC(C)(O)C#Cc1cnc(-c2cn(CC3OCC(C)(C)CO3)nn2)c(OC2CC2)c1 [Compound I-8]	300 to 1000 nM	> 75%	–
C(#Cc1cnc(-c2cn(CC3OCC4(CC4)CO3)nn2)c(OC2CC2)c1)CN1CC2(CC2)C1 [Compound I-9]	≤ 300 nM	–	> 75%
CC1(C)COC(Cn2cc(-c3ncc(C(=O)NCc4cnccn4)cc3OC3CC3)nn2)OC1 [Compound I-10]	–	≤ 25%	–
Cc1ccc(C2CC2)nc1-c1cn(CC2OCC(C)(C)CO2)nn1 [Compound I-11]	–	–	≤ 25%
Cc1cc(C#CC2CC2)ccc1-c1cn(Cc2cncs2)nn1 [Compound I-12]	–	–	≤ 25%
Cc1cc(C#CC2CC2)ccc1-c1cn(Cc2cocn2)nn1 [Compound I-13]	–	≤ 25%	–
CC1(C)COC(Cn2cc(-c3ncc(C#N)cc3OC3CC3)nn2)OC1 [Compound I-14]	300 to 1000 nM	> 75%	–
CC(=O)NCC#Cc1cnc(-c2cn(CC3OCC(C)(C)CO3)nn2)c(OC2CC2)c1 [Compound I-15]	≤ 300 nM	–	> 75%
FC1(F)CC12CN(CC#Cc1cnc(-c3cn(CC4OCC5(CC5)CO4)nn3)c(OC3CC3)c1)C2 [Compound I-16]	≤ 300 nM	–	> 75%
c1nc(-c2cn(CC3OCC4(CC4)CO3)nn2)c(OC2CC2)cc1N1CC2(CC2)C1 [Compound I-17]	300 to 1000 nM	> 75%	–
FC1(F)CC12CN(c1cnc(-c3cn(CC4OCC5(CC5)CO4)nn3)c(OC3CC3)c1)C2 [Compound I-18]	–	25 to 50%	–
Cc1cc(C#CC2CC2)ccc1-c1cn(Cc2cscn2)nn1 [Compound I-19]	–	–	≤ 25%
c1nc(-c2cn(CC3OCC4(CC4)CO3)nn2)c(OC2CC2)cc1N1CC2(COC2)C1 [Compound I-20]	–	> 75%	–
CC1(C)COC(Cn2cc(-c3ncc(C#CCNC4COC4)cc3OC3CC3)nn2)OC1 [Compound I-21]	≤ 300 nM	–	> 75%
OC1CC2(C1)CN(CC#Cc1cnc(-c3cn(CC4OCC5(CC5)CO4)nn3)c(OC3CC3)c1)C2 (centres unmarked) [Compound I-22]	≤ 300 nM	–	> 75%

Structure (SMILES)	IC50	inhibition at 10 µM	inhibition at 2 µM
CN(C)C(=O)Cn1cc(-c2ncc(C#CC3CC3)cc2OC2CC2)nn1 [Compound I-23, 2-(4-(3-cyclopropoxy-5-(cyclopropylethynyl)pyridin-2-yl)-1H-1,2,3-triazol-1-yl)-N,N-dimethylacetamide]	1000 to 3000 nM	> 75%	–
CN(C)C(=O)Cn1cc(-c2ccc(N3CC(C)(CO)C3)cc2N(C)C)nn1 [Compound I-24]	1000 to 3000 nM	> 75%	–
CN(C)c1cc(N2CC3(COC3)C2)c(F)cc1-c1cn(CC2OCC3(CC3)CO2)nn1 [Compound I-25]	≤ 300 nM	–	> 75%
CC1(CO)CN(c2cnc(-c3cn(CC4CC5(CC5)CO4)nn3)c(OC3CC3)c2)C1 (centres unmarked) [Compound I-26]	–	> 75%	–
CC1(CO)CN(c2cnc(-c3cn(CC4OCC(F)(F)CO4)nn3)c(OC3CC3)c2)C1 [Compound I-27]	–	50 to 75%	–
CN(C)c1cc(C#CC2(O)CC2)ccc1-c1cn(CC2OCC(C)(C)CO2)nn1 [Compound I-28]	≤ 300 nM	–	> 75%
CC1(C)COC(Cn2cc(C#Cc3ccc(C4CC4)cc3)nn2)OC1 [Compound I-29]	–	≤ 25%	–
CC(O)C1(C)CN(c2ccc(-c3cn(CC4OCC5(CC5)CO4)nn3)c(N(C)C)c2)C1 (centres unmarked) [Compound I-30]	≤ 300 nM	–	> 75%
OC1CC2(C1)CN(c1cnc(-c3cn(CC4OCC5(CC5)CO4)nn3)c(OC3CC3)c1)C2 (centres unmarked) [Compound I-31]	≤ 300 nM	> 75%	–
CC1(C)COC(Cn2cc(C#Cc3ccncc3)nn2)OC1 [Compound I-32]	–	≤ 25%	–
Cc1cc(C#CC2CC2)ccc1-c1cn(Cc2cnco2)nn1 [Compound I-33]	–	≤ 25%	–
CC1(C)COC(Cn2cc(-c3ncc(C#CC4(O)CC4)cc3OC3CC3)nn2)OC1 [Compound I-34]	≤ 300 nM	–	> 75%
OC1(C#Cc2cnc(-c3cn(CC4OCC5(CC5)CO4)nn3)c(OC3CC3)c2)CC1 [Compound I-35]	≤ 300 nM	–	> 75%
CC1(C)COC(Cn2cc(-c3ncc(C#CCNS(C)(=O)=O)cc3OC3CC3)nn2)OC1 [Compound I-36]	≤ 300 nM	–	> 75%
CCc1cc(C#CC(N)=O)ccc1-c1cn(CC2OCC(C)(C)CO2)nn1 [Compound I-37]	≤ 300 nM	> 75%	–
CC1(C)COC(Cn2cc(-c3ncc(C#CCNC4CC(F)(F)C4)cc3OC3CC3)nn2)OC1 [Compound I-38]	≤ 300 nM	–	> 75%
CN(C)c1cc(N2CC(C)(CO)C2)ccc1-c1cn(CC2OCC(C)(C)CO2)cn1 [Compound I-39]	300 to 1000 nM	> 75%	–
CC1(C)COC(Cn2cc(-c3ncc(CC#N)cc3OC3CC3)nn2)OC1 [Compound I-40]	–	50 to 75%	–
CN(C)c1cc(N2CC(C)(CO)C2)ccc1-c1cn(CC2OCC3(CC3)CO2)cn1 [Compound I-41]	≤ 300 nM	–	> 75%
CN(C)c1cc(N2CC3(COC3)C2)ccc1-c1cn(CC2OCC3(CC3)CO2)cn1 [Compound I-42]	–	> 75%	–
CC1(C)COC(Cn2ncc(C#Cc3ccncc3)n2)OC1 [Compound I-43]	–	≤ 25%	–
